Measured values taken from US11046680B1, “Heteroaryl-substituted triazoles as APJ receptor agonists” (priority 2016, dated 2021).

molecular target: human APJ receptor (Homo sapiens (Human), UniProt P35414); experiment: biochemical; format: biochemical; conditions: [35S]GTPγS binding, CHO membranes expressing human APJ receptor; read-out: Activity hAPJ SPA EC50 IP
Method in brief: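 GTPγS binding on membranes from CHO cells stably expressing FLAG-tagged human APJ, with optimized GDP, MgCl2 and NaCl; incubated 90 min at RT before imaging read-out.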

Sequence of human APJ receptor (P35414 whole entry): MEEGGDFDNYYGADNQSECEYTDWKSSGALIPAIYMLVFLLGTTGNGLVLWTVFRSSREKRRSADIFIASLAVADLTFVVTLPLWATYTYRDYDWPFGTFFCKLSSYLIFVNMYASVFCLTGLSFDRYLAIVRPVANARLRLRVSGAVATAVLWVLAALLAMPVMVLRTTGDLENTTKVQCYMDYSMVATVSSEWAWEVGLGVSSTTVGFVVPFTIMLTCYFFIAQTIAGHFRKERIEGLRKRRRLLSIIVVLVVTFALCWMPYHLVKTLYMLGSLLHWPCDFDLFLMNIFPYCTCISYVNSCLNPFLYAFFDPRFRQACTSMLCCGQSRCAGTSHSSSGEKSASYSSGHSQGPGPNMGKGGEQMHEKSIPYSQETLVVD

Structure (SMILES) | EC50
COc1cccc(OC)c1-n1c(NS(=O)(=O)[C@@H](C)[C@H](OC)c2ncc(Cl)cn2)nnc1-c1cnn2c1CCC2 [Example 488.0, (1R,2S)-1-(5-chloropyrimidin-2-yl)-N-(5-(5,6-dihydro-4H-pyrrolo[1,2-b]pyrazol-3-yl)-4-(2,6-dimethoxyphenyl)-4H-1,2,4-triazol-3-yl)-1-methoxypropane-2-sulfonamide] | 0.2 nM
COCC1(n2c(NS(=O)(=O)[C@@H](C)[C@H](OC)c3ncc(Cl)cn3)nnc2-c2n[nH]c3c2CCC3)CCC1 [Example 489.0] | 1.3 nM
COCC1(n2c(NS(=O)(=O)[C@@H](C)[C@H](OC)c3ncc(Cl)cn3)nnc2-c2n[nH]c3c2CCCC3)CC1 [Example 491.0, (1R,2S)-1-(5-chloropyrimidin-2-yl)-1-methoxy-N-(4-(1-(methoxymethyl)cyclopropyl)-5-(4,5,6,7-tetrahydro-1H-indazol-3-yl)-4H-1,2,4-triazol-3-yl)propane-2-sulfonamide] | 15 nM
CO[C@H](c1ncc(Cl)cn1)[C@H](C)S(=O)(=O)Nc1nnc(-c2n[nH]c3c2CCC3)n1C1(C)CCC1 [Example 492.0, (1R,2S)-1-(5-chloropyrimidin-2-yl)-1-methoxy-N-(4-(1-methylcyclobutyl)-5-(1,4,5,6-tetrahydrocyclopenta[c]pyrazol-3-yl)-4H-1,2,4-triazol-3-yl)propane-2-sulfonamide] | 34 nM
COCC1(n2c(NS(=O)(=O)[C@@H](C)[C@H](OC)c3ncc(Cl)cn3)nnc2-c2n[nH]c3ccc(C)cc23)CC1 [Example 493.0, (1R,2S)-1-(5-chloropyrimidin-2-yl)-1-methoxy-N-(4-(1-(methoxymethyl)cyclopropyl)-5-(5-methyl-1H-indazol-3-yl)-4H-1,2,4-triazol-3-yl)propane-2-sulfonamide] | 43 nM
COCC1(n2c(NS(=O)(=O)[C@@H](C)[C@H](OC)c3ncc(Cl)cn3)nnc2-c2n[nH]c3ccccc23)CC1 [Example 495.0, (1R,2S)-1-(5-chloro-2-pyrimidinyl)-N-(5-(1H-indazol-3-yl)-4-(1-(methoxymethyl)cyclopropyl)-4H-1,2,4-triazol-3-yl)-1-methoxy-2-propanesulfonamide] | 13 nM
COc1cccc(OC)c1-n1c(NS(=O)(=O)[C@@H](C)[C@H](OC)c2ncc(Cl)cn2)nnc1-c1cc(C)on1 [Example 496.0, (1R,2S)-1-(5-chloropyrimidin-2-yl)-N-(4-(2,6-dimethoxyphenyl)-5-(5-methylisoxazol-3-yl)-4H-1,2,4-triazol-3-yl)-1-methoxypropane-2-sulfonamide] | 0.62 nM
COc1cccc(OC)c1-n1c(NS(=O)(=O)[C@@H](C)[C@@H](OC(C)C)c2cnc(C)cn2)nnc1-c1cc(C)on1 [Example 497.0, (1S,2S)-N-(4-(2,6-dimethoxyphenyl)-5-(5-methylisoxazol-3-yl)-4H-1,2,4-triazol-3-yl)-1-isopropoxy-1-(5-methylpyrazin-2-yl)propane-2-sulfonamide] | 15 nM
COc1cccc(OC)c1-n1c(NS(=O)(=O)[C@@H](C)[C@H](C)c2ncc(Cl)cn2)nnc1-c1cc(C)on1 [Example 498.0, (2S,3R)-3-(5-chloropyrimidin-2-yl)-N-(4-(2,6-dimethoxyphenyl)-5-(5-methylisoxazol-3-yl)-4H-1,2,4-triazol-3-yl)butane-2-sulfonamide] | 0.44 nM
COc1cccc(OC)c1-n1c(NS(=O)(=O)[C@@H](C)[C@H](OC)c2ncc(Cl)cn2)nnc1-c1cnn(C)c1C(C)C [Example 501.0, (1R,2S)-1-(5-chloropyrimidin-2-yl)-N-(4-(2,6-dimethoxyphenyl)-5-(5-isopropyl-1-methyl-1H-pyrazol-4-yl)-4H-1,2,4-triazol-3-yl)-1-methoxypropane-2-sulfonamide] | 9.3 nM
COCC1(n2c(NS(=O)(=O)[C@@H](C)[C@H](OC)c3ncc(Cl)cn3)nnc2-c2noc3ccccc23)CC1 [Example 505.0, (1R,2S)-N-(5-(1,2-benzoxazol-3-yl)-4-(1-(methoxymethyl)cyclopropyl)-4H-1,2,4-triazol-3-yl)-1-(5-chloro-2-pyrimidinyl)-1-methoxy-2-propanesulfonamide] | 8.5 nM
CO[C@H](c1ncc(Cl)cn1)[C@H](C)S(=O)(=O)Nc1nnc(-c2noc3ccccc23)n1C1CC1 [Example 506.0, (1R,2S)-N-(5-(benzo[d]isoxazol-3-yl)-4-cyclopropyl-4H-1,2,4-triazol-3-yl)-1-(5-chloropyrimidin-2-yl)-1-methoxypropane-2-sulfonamide] | 260 nM
CO[C@H](c1ncc(Cl)cn1)[C@H](C)S(=O)(=O)Nc1nnc(-c2cnn3ccccc23)n1C1CC1 [Example 507.0, (1R,2S)-1-(5-chloropyrimidin-2-yl)-N-(4-cyclopropyl-5-(pyrazolo[1,5-a]pyridin-3-yl)-4H-1,2,4-triazol-3-yl)-1-methoxypropane-2-sulfonamide] | 38 nM
COCC1(n2c(NS(=O)(=O)[C@@H](C)[C@H](OC)c3ncc(Cl)cn3)nnc2-c2cnn3ccccc23)CCC1 [Example 508.0] | 62 nM
COCC1(n2c(NS(=O)(=O)[C@@H](C)[C@H](OC)c3ncc(Cl)cn3)nnc2-c2cnn3ccccc23)CC1 [Example 509.0, (1R,2S)-1-(5-chloropyrimidin-2-yl)-1-methoxy-N-(4-(1-(methoxymethyl)cyclopropyl)-5-(pyrazolo[1,5-a]pyridin-3-yl)-4H-1,2,4-triazol-3-yl)propane-2-sulfonamide] | 4.1 nM
CO[C@H](c1ncc(Cl)cn1)[C@H](C)S(=O)(=O)Nc1nnc(-c2noc3ccccc23)n1C(C)C [Example 511.0, (1R,2S)-N-(5-(benzo[d]isoxazol-3-yl)-4-isopropyl-4H-1,2,4-triazol-3-yl)-1-(5-chloropyrimidin-2-yl)-1-methoxypropane-2-sulfonamide] | 200 nM
CO[C@H](c1ncc(Cl)cn1)[C@H](C)S(=O)(=O)Nc1nnc(-c2nn(C)c3c2CCCC3)n1C(C)C [Example 512.0, (1R,2S)-1-(5-chloropyrimidin-2-yl)-N-(4-isopropyl-5-(1-methyl-4,5,6,7-tetrahydro-1H-indazol-3-yl)-4H-1,2,4-triazol-3-yl)-1-methoxypropane-2-sulfonamide] | 130 nM
COCC1(n2c(NS(=O)(=O)[C@@H](C)[C@H](OC)c3ncc(Cl)cn3)nnc2-c2nn(C)c3c2CCCC3)CC1 [Example 513.0, (1R,2S)-1-(5-chloropyrimidin-2-yl)-1-methoxy-N-(4-(1-(methoxymethyl)cyclopropyl)-5-(1-methyl-4,5,6,7-tetrahydro-1H-indazol-3-yl)-4H-1,2,4-triazol-3-yl)propane-2-sulfonamide] | 3.1 nM
CO[C@H](c1ncc(Cl)cn1)[C@H](C)S(=O)(=O)Nc1nnc(-c2nn(C)c3c2CCCC3)n1C1CC1 [Example 514.0, (1R,2S)-1-(5-chloropyrimidin-2-yl)-N-(4-cyclopropyl-5-(1-methyl-4,5,6,7-tetrahydro-1H-indazol-3-yl)-4H-1,2,4-triazol-3-yl)-1-methoxypropane-2-sulfonamide] | 19 nM
COc1cccc(OC)c1-n1c(NS(=O)(=O)[C@@H](C)[C@H](OC)c2ncc(Cl)cn2)nnc1-c1noc(C)c1C [Example 515.0, (1R,2S)-1-(5-chloropyrimidin-2-yl)-N-(4-(2,6-dimethoxyphenyl)-5-(4,5-dimethylisoxazol-3-yl)-4H-1,2,4-triazol-3-yl)-1-methoxypropane-2-sulfonamide] | 0.93 nM
COc1cccc(OC)c1-n1c(NS(=O)(=O)[C@@H](C)[C@H](OC)c2ncc(C)cn2)nnc1-c1noc(C)c1C [Example 516.0] | 18 nM
